Test results from patent US8338594B2, “Pyrrolotriazine derivatives useful for treating cancer through inhibition of aurora kinase” (Bayer HealthCare LLC, priority 2005, dated 2012).

Legend:
[1] = target: T1, Aurora Kinase 1 (Homo sapiens, UniProt Q96GD4); experiment: capture ELISA measuring Aurora Kinase 1 autophosphorylation in HT29 colon carcinoma cells; assay type: cell-based; settings: HT29 cells synchronized for 24 hours, compound treatment 2 hours
T1 construct: endogenous in cells; host or cells: HT29 colon carcinoma cells
Description: To determine the ability of compounds to inhibit Aurora Kinase 1 activity in cells, a capture ELISA measuring Aurora Kinase 1 autophosphorylation was developed in HT29 colon carcinoma cells (Yasui Y, et al 2004). Briefly, 15,000 cells/well were seeded in a 96-well collagen coated plates in RPMI+10% FBS and incubated at 37° C. in 5% CO2 overnight. The following day, the cells were treated with 166 nM nacadazole compounds for 24 hours at 37° C. Synchronized cells were further treated with compounds for 2 hours. Compound dilutions were prepared from 0.1 mM DMSO stocks such that 1.1 μL of each dilution was added to obtain a final concentration ranging from 10 μM to 13 nM in one-third log steps. Following compound treatment, plates were centrifuged at 1000 rpm for 2 minutes and washed twice with 100 μL of cold sterile TBS. Cells were then lysed (100 μL of 150 mM NaCl, 20 mM Tris, pH 7.5, 1 mM EDTA, 1 mM EGTA, 1% Triton-x-100 plus protease and phosphatase inhibitors) by shaking at 4° C. for 1 hour. Cell lysates were transferred to plates pre-coated with anti-phospho mAur1 (Rockland, 600-401-677) and blocked with 5% blocker A in TBS from Meso Scale Discovery. After incubating for 1 hour at RT, plates were washed with 300 μL of TBST for a total of three times. The supernatant was removed and replaced with 50 μL of diluted primary antibody (anti-Aurora Kinase 1, Pharmingen, 611083) at 1:1000 in 2% blocker A in TBS and incubated at room temperature for 1 hour. The antibody buffer was removed from each well and washed three times with 300 μL of cold TBS-T ([…] Tris pH 8.0, 138 mM NaCl, 2.7 mM KCL, 0.05% Tween 20). The wash buffer was replaced with 50 μL of secondary antibody (Sulfa TAG anti-mouse, Meso Scale Discovery) at 1:1000 in 2% blocker A and incubated at room temperature for 1 hour. For the final readout with the Sector 6000, 150 μL of reading buffer T was added and the plates were read immediately.

[2] = target: T2, murine Aurora Kinase 1 (mAur1) (Mus musculus, UniProt O70126); experiment: murine Aurora Kinase 1 (mAur1) biochemical Scintillation Proximity Assay; settings: SPA, biotinylated Peptide 830, 1 μM ATP, 12 nM GST-tagged mAur 1 co-expressed with human INCENP
T2 construct: recombinant, GST-tagged mAur 1 (amino acids 67-345) that was co-expressed with human INCENP; GST; made in house
Description: (§1) Using a Scintillation Proximity Assay (SPA) format, the murine Aurora Kinase 1 (mAur1) and murine Aurora Kinase 2 (mAur2) biochemical assay measures the ability of mAur2 to phosphorylate the substrate, biotinylated Peptide 830 (DRT, Protein Sciences). Once radiolabeled by the enzyme, the biotinylated substrate is captured on streptavidin-coated SPA beads and the radioactivity, in proximity to the SPA beads, is measured. For the generation of IC50 curves, the reaction was performed in 96-well isoplates (Wallac 1450-514) under the following conditions: a 10 mM stock solution of compound (in 100% dimethylsulfoxide; DMSO) was diluted 10 fold in 100% DMSO. Compounds were then serially diluted, 1:5, for an eight point dose curve, in 100% DMSO. A volume of 1 μL of the diluted compound was added to the reaction buffer that consisted of 25 mM HEPES pH 7.5, 1 mM MnCl2, 1 mM MgCl2, 1 mM DTT, 0.01% Tween20. A mixture with a final concentration per well of 1 μM cold ATP, 0.1 μCi ^33P-ATP (Amersham AH9968) and 1 μM biotinylated Peptide 830 was then added. The reaction was initiated with the addition of either recombinant, GST-tagged mAur 1 (amino acids 67-345) that was co-expressed with human INCENP (amino acids 704-919) (DRT, Protein Sciences) at a final concentration of 12 nM or N-terminal His-tagged mAur2 (amino acids 98-395; DRT, Protein Sciences) at a final concentration of 20 nM. The final reaction volume in each well was 100 μL and the final compound concentration ranged from 10 μM-[…] in 1% DMSO. The reaction mixture was allowed to incubate for 1-2 hours with gentle agitation at 25° C. To terminate the reaction, streptavidin-coated SPA beads (Amersham RPNQ0007; 50 μL of 0.5 mg beads dissolved in 165 mM EDTA) were then added to each well and incubation proceeded for an additional 15 minutes at 25° C. The plate was then centrifuged for ten minutes at 2000 rpm. Phosphorylation of the peptide substrate was measured using a Wallac 1450 Microbeta Plus Liquid Scintillation Counter.

[3] = target: T3, murine Aurora Kinase 2 (mAur2) (Mus musculus, UniProt P97477); experiment: murine Aurora Kinase 2 (mAur2) biochemical Scintillation Proximity Assay; settings: SPA, biotinylated Peptide 830, 1 μM ATP, 20 nM His-tagged mAur2
T3 construct: N-terminal His-tagged mAur2 (amino acids 98-395; DRT, Protein Sciences); His (N); made in house
T3 sequence (P97477 98-395): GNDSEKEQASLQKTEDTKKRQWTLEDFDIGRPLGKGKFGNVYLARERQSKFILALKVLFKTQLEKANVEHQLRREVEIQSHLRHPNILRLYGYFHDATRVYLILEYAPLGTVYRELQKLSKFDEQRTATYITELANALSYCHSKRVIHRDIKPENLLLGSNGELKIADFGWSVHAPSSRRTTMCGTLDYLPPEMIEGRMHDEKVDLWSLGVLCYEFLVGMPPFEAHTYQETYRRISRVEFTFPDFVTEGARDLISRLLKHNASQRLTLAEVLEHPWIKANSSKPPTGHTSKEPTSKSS
Description: as §1

T1 sequence (Q96GD4 whole entry): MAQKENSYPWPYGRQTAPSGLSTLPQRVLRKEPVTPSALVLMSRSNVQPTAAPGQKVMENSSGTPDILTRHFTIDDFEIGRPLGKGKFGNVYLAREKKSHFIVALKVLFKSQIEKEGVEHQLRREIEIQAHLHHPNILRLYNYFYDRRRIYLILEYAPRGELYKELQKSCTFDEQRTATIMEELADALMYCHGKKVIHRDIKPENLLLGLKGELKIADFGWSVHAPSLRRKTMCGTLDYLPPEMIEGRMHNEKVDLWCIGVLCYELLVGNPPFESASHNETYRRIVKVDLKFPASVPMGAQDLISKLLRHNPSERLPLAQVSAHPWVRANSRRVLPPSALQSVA
T2 sequence (O70126 67-345): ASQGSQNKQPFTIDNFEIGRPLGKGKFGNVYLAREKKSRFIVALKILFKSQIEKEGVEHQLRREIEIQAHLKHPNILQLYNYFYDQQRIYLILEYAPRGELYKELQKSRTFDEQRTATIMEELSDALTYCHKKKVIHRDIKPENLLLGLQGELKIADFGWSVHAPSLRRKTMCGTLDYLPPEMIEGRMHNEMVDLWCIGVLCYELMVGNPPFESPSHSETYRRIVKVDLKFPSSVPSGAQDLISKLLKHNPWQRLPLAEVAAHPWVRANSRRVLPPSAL
T2 sequence (Q9NQS7 704-918 partner): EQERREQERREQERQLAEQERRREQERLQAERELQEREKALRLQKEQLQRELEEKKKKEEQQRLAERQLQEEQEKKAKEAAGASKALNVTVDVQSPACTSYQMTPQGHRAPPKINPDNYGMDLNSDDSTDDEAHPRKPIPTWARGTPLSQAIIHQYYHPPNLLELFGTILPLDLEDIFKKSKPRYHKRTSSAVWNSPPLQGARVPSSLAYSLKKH

Which IC50 [1] does the source give for `CC(C)(C)c1ccc2nc(Nc3ccc(-c4c(C(=O)NCC(F)(F)F)cn5ncnc(N)c45)cc3)[nH]c2c1` [Example 10, 4-amino-5-{4-[(6-tert-butyl-1H-benzimidazol-2-yl)amino]phenyl}-N-(2,2,2-trifluoroethyl)pyrrolo[2,1-f][1,2,4]triazine-6-carboxamide] here?
Its IC50 is under 1000 nM.

With `Nc1ncnn2cc(C(=O)NCC(F)(F)F)c(-c3ccc(Nc4nc5cc6c(cc5[nH]4)OC(F)(F)O6)cc3)c12` [Example 17, 4-amino-5-{4-[(2,2-difluoro-5H-[1,3]dioxolo[4,5-f]benzimidazol-6-yl)amino]phenyl}-N-(2,2,2-trifluoroethyl)pyrrolo[2,1-f][1,2,4]triazine-6-carboxamide] as the compound, how does the IC50 [2] read?
Its IC50 is under 100 nM.

What about the IC50 [3] of the same compound?
The IC50 was under 100 nM.

What about the IC50 [1] of the same compound?
Its IC50 is under 1000 nM.

How did the IC50 [1] turn out when `Nc1ncnn2cc(C(=O)NCC(F)(F)F)c(-c3ccc(Nc4nc5ccc(N6CCCC6)nc5[nH]4)cc3)c12` [Example 20, 4-amino-5-{4-[(5-pyrrolidin-1-yl-3H-imidazo[4,5-b]pyridin-2-yl)amino]phenyl}-N-(2,2,2-trifluoroethyl)pyrrolo[2,1-f][1,2,4]triazine-6-carboxamide] was run?
Its IC50 is under 1000 nM.

How did the IC50 [1] turn out when `Nc1ncnn2cc(C(=O)NCC(F)(F)F)c(-c3ccc(Nc4nc5ccc(OC(F)(F)F)cc5[nH]4)cc3)c12` [Example 31, 4-amino-N-(2,2,2-trifluoroethyl)-5-(4-{[6-(trifluoromethoxy)-1H-benzimidazol-2-yl]amino}phenyl)pyrrolo[2,1-f][1,2,4]triazine-6-carboxamide] was run?
The IC50 was under 1000 nM.

With `Nc1ncnn2cc(C(=O)NCC(F)(F)F)c(-c3ccc(Nc4nc5ccc(Oc6ccccc6)c(F)c5[nH]4)cc3)c12` [Example 32, 4-amino-5-{4-[(7-fluoro-6-phenoxy-1H-benzimidazol-2-yl)amino]phenyl}-N-(2,2,2-trifluoroethyl)pyrrolo[2,1-f][1,2,4]triazine-6-carboxamide] as the compound, how does the IC50 [1] read?
The IC50 was under 1000 nM.

How did the IC50 [1] turn out when `Nc1ncnn2cc(C(=O)NCC(F)(F)F)c(-c3ccc(Nc4nc5ccc(Oc6ccc(F)cc6)c(F)c5[nH]4)cc3)c12` [Example 35, 4-amino-5-(4-{[7-fluoro-6-(4-fluorophenoxy)-1H-benzimidazol-2-yl]amino}phenyl)-N-(2,2,2-trifluoroethyl)pyrrolo[2,1-f][1,2,4]triazine-6-carboxamide] was run?
Its IC50 is under 1000 nM.

For `Nc1ncnn2cc(C(=O)NCC(F)(F)F)c(-c3ccc(Nc4nc5ccc(NC6CCC6)nc5[nH]4)cc3)c12` [Example 47, 4-amino-5-(4-{[5-(cyclobutylamino)-3H-imidazo[4,5-b]pyridin-2-yl]amino}phenyl)-N-(2,2,2-trifluoroethyl)pyrrolo[2,1-f][1,2,4]triazine-6-carboxamide], which IC50 [2] is on record?
Its IC50 is under 100 nM.

What about the IC50 [3] of the same compound?
Its IC50 is under 100 nM.

What about the IC50 [1] of the same compound?
Its IC50 is under 1000 nM.

Which IC50 [2] does the source give for `CC(C)(C)NC(=O)c1cn2ncnc(N)c2c1-c1ccc(Nc2nc3cc(F)cc(F)c3[nH]2)cc1` [Example 72, 4-amino-N-(tert-butyl)-5-{4-[(5,7-difluoro-1H-benzimidazol-2-yl)amino]phenyl}pyrrolo[2,1-f][1,2,4]triazine-6-carboxamide] here?
Its IC50 is under 100 nM.

And the IC50 [3]?
The IC50 was under 100 nM.

What about the IC50 [1] of the same compound?
The IC50 was under 1000 nM.

For `CNC(=O)c1cn2ncnc(N)c2c1-c1ccc(Nc2nc3ccc(Oc4ccccc4)c(F)c3[nH]2)cc1` [Example 102, 4-amino-5-{4-[(7-fluoro-6-phenoxy-1H-benzimidazol-2-yl)amino]phenyl}-N-methylpyrrolo[2,1-f][1,2,4]triazine-6-carboxamide], which IC50 [2] is on record?
Its IC50 is under 100 nM.

What about the IC50 [3] of the same compound?
The IC50 was under 100 nM.

What about the IC50 [1] of the same compound?
Its IC50 is under 1000 nM.

Which IC50 [2] does the source give for `COCc1cccc(-c2ccc3nc(Nc4ccc(-c5c(C(=O)NCC(F)(F)F)cn6ncnc(N)c56)cc4)[nH]c3n2)c1` [Example 116, 4-amino-5-[4-({5-[3-(methoxymethyl)phenyl]-3H-imidazo[4,5-b]pyridin-2-yl}amino)phenyl]-N-(2,2,2-trifluoroethyl)pyrrolo[2,1-f][1,2,4]triazine-6-carboxamide] here?
The IC50 was under 100 nM.

What about the IC50 [3] of the same compound?
Its IC50 is under 100 nM.

What does the source list for `Nc1ncnn2cc(C(=O)O)c(-c3ccc(Nc4nc5ccc(C(F)(F)F)nc5[nH]4)cc3)c12` [Example 119]?
IC50 [2]: < 100 nM; IC50 [3]: < 100 nM

Which IC50 [2] does the source give for `Nc1ncnn2cc(C(=O)NCC(F)(F)F)c(-c3ccc(Nc4nc5ccc(C(F)(F)F)nc5[nH]4)cc3)c12` [Example 120, 4-amino-N-(2,2,2-trifluoroethyl)-5-(4-{[5-(trifluoromethyl)-3H-imidazo[4,5-b]pyridin-2-yl]amino}phenyl)pyrrolo[2,1-f][1,2,4]triazine-6-carboxamide] here?
The IC50 was under 100 nM.

And the IC50 [3]?
The IC50 was under 100 nM.
